Data from ChEMBL document CHEMBL3885861, “Open TG-GATES”.

Organism: Rattus norvegicus
Experiment: Open TG-GATES - Regimen: Daily Repeat
Assay type: toxicity, organism-based, Sprague-Dawley
Design: regimen Daily Repeat, gender Male, age 6 weeks
Details: in vivo, po, 0 mg/kg, route gavage, dose level Control; for APTT / Bas / Eos / Fbg / Hb / Ht / Lym / MCH / MCHC / MCV / Mono / Neu / PT / Plat / RBC / Ret / WBC: tissue Blood; for KIDNEY_L / KIDNEY_R / KIDNEY_TOTAL: tissue Kidney; for LIVER: tissue Liver; for A/G / ALP / ALT / AST / BUN / CRE / Ca / Cl / DBIL / GLC / IP / K / LDH / Na / PL / RALB / TBIL / TC / TG / TP / gamma-GTP: tissue Plasma

## Nc1c2c(nc3ccccc13)CCCC2 [TACRINE]
72 h, time 3 day
  TERMINAL_BW: 222.7 g
  APTT: 21.1 s
  Bas: 0%
  Eos: 1.2%
  Fbg: 304 mg/dL
  Hb: 13.6 g/dL
  Ht: 38.7%
  Lym: 80%
  MCH: 21.1 pg
  MCHC: 35%
  MCV: 60.4 fL
  Mono: 3%
  Neu: 14.8%
  PT: 16.8 s
  Plat: 125.8 x10_4/uL
  RBC: 641.8 x10_4/ul
  Ret: 6.4%
  WBC: 108.4 x10_2/uL
  KIDNEY_L: 0.9 g
  KIDNEY_R: 1 g
  KIDNEY_TOTAL: 1.9 g
  LIVER: 10.2 g
  A/G: 1.3
  ALP: 1665.8 IU/L
  ALT: 51.6 IU/L
  AST: 79 IU/L
  BUN: 17.4 mg/dL
  CRE: 0.2 mg/dL
  Ca: 10.9 mg/dL
  Cl: 107.2 meq/L
  DBIL: 0.002 mg/dL
  GLC: 200.2 mg/dL
  IP: 7.4 mg/dL
  K: 4.4 meq/L
  LDH: 264 IU/L
  Na: 142.8 meq/L
  PL: 158.4 mg/dL
  RALB: 3.1 g/dL
  TBIL: 0.01 mg/dL
  TC: 72.8 mg/dL
  TG: 132.8 mg/dL
  TP: 5.6 g/dL
  gamma-GTP: 1 IU/L
[…], time 7 day
  TERMINAL_BW: 252.2 g
  APTT: 21.6 s
  Bas: 0%
  Eos: 1%
  Fbg: 289 mg/dL
  Hb: 13.5 g/dL
  Ht: 38.4%
  Lym: 85%
  MCH: 21.2 pg
  MCHC: 35.2%
  MCV: 60.1 fL
  Mono: 2.2%
  Neu: 11%
  PT: 16.3 s
  Plat: 122.6 x10_4/uL
  RBC: 639.4 x10_4/ul
  Ret: 5.5%
  WBC: 142.5 x10_2/uL
  KIDNEY_L: 1.1 g
  KIDNEY_R: 1.1 g
  KIDNEY_TOTAL: 2.1 g
  LIVER: 11.2 g
  A/G: 1.2
  ALP: 1508 IU/L
  ALT: 36 IU/L
  AST: 67.6 IU/L
  BUN: 16.8 mg/dL
  CRE: 0.2 mg/dL
  Ca: 10.5 mg/dL
  Cl: 107.4 meq/L
  DBIL: 0 mg/dL
  GLC: 191.6 mg/dL
  IP: 7.1 mg/dL
  K: 4.2 meq/L
  LDH: 172.8 IU/L
  Na: 142 meq/L
  PL: 153.8 mg/dL
  RALB: 2.9 g/dL
  TBIL: 0.016 mg/dL
  TC: 77.6 mg/dL
  TG: 110 mg/dL
  TP: 5.4 g/dL
  gamma-GTP: 1 IU/L
[…], time 14 day
  TERMINAL_BW: 300.3 g
  APTT: 23 s
  Bas: 0%
  Eos: 0.8%
  Fbg: 323 mg/dL
  Hb: 15.4 g/dL
  Ht: 42.9%
  Lym: 79.6%
  MCH: 21.2 pg
  MCHC: 36%
  MCV: 58.8 fL
  Mono: 2.6%
  Neu: 16.4%
  PT: 15.6 s
  Plat: 117.8 x10_4/uL
  RBC: 728.8 x10_4/ul
  Ret: 4%
  WBC: 91.1 x10_2/uL
  KIDNEY_L: 1.2 g
  KIDNEY_R: 1.2 g
  KIDNEY_TOTAL: 2.3 g
  LIVER: 12.4 g
  A/G: 1.3
  ALP: 1565.4 IU/L
  ALT: 40 IU/L
  AST: 72 IU/L
  BUN: 20.6 mg/dL
  CRE: 0.2 mg/dL
  Ca: 10.7 mg/dL
  Cl: 108 meq/L
  DBIL: 0 mg/dL
  GLC: 192.8 mg/dL
  IP: 6.3 mg/dL
  K: 4.1 meq/L
  LDH: 184.8 IU/L
  Na: 142.2 meq/L
  PL: 161.6 mg/dL
  RALB: 3.3 g/dL
  TBIL: 0.012 mg/dL
  TC: 81.8 mg/dL
  TG: 123.4 mg/dL
  TP: 6 g/dL
  gamma-GTP: 1.2 IU/L
[…], time 28 day
  TERMINAL_BW: 378.9 g
  APTT: 23.1 s
  Bas: 0%
  Eos: 1%
  Fbg: 321 mg/dL
  Hb: 15.6 g/dL
  Ht: 41.5%
  Lym: 83.4%
  MCH: 20.8 pg
  MCHC: 37.6%
  MCV: 55.3 fL
  Mono: 1.6%
  Neu: 13%
  PT: 16 s
  Plat: 115 x10_4/uL
  RBC: 752 x10_4/ul
  Ret: 2.9%
  WBC: 108.3 x10_2/uL
  KIDNEY_L: 1.4 g
  KIDNEY_R: 1.4 g
  KIDNEY_TOTAL: 2.9 g
  LIVER: 15.5 g
  A/G: 1.1
  ALP: 1179.4 IU/L
  ALT: 38.6 IU/L
  AST: 61.6 IU/L
  BUN: 18.6 mg/dL
  CRE: 0.2 mg/dL
  Ca: 10.7 mg/dL
  Cl: 105.2 meq/L
  DBIL: 0 mg/dL
  GLC: 191.8 mg/dL
  IP: 5.9 mg/dL
  K: 4.1 meq/L
  LDH: 165.2 IU/L
  Na: 141.6 meq/L
  PL: 157.6 mg/dL
  RALB: 3.2 g/dL
  TBIL: 0.006 mg/dL
  TC: 75.4 mg/dL
  TG: 144.6 mg/dL
  TP: 6.2 g/dL
  gamma-GTP: 1 IU/L
